How the values were obtained:
Test in all cases: relative viability (nuclei count vs DMSO), 5 days (fraction); higher = more cells survive
[1] = compound: CCN(CCO)CCCC(C)Nc1ccnc2cc(Cl)ccc12 [Hydroxychloroquine] + CS(=O)(=O)N1CCN(Cc2cc3nc(-c4cccc5[nH]ncc45)nc(N4CCOCC4)c3s2)CC1 [Pictilisib] (partner 1 µM)
How it was run: (§1)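 A single step with final 0.05% Triton X-100, 1% formaldehyde and 1 ug/ml Hoechst fixed the cells and stained nuclei 5 days after treatment. Lung cancer cell lines in 1536-well plates had been treated by pin tool the day after seeding with one drug alone or a fixed anchor-drug dose plus five library-drug doses (not always all listed) in √10 steps, and nuclei were counted on 4× images. Relative viability is the ratio of nuclei in treated wells to nuclei in vehicle wells, taken as the median of duplicate plates.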

[2] = compound: CCN(CCO)CCCC(C)Nc1ccnc2cc(Cl)ccc12 [Hydroxychloroquine] + CCNC(=O)c1noc(-c2cc(C(C)C)c(O)cc2O)c1-c1ccc(CN2CCOCC2)cc1 [Luminespib] (partner 0.01 µM)
How it was run: as §1

[3] = compound: CCN(CCO)CCCC(C)Nc1ccnc2cc(Cl)ccc12 [Hydroxychloroquine] + CC(=O)c1c(C)c2cnc(Nc3ccc(N4CCNCC4)cn3)nc2n(C2CCCC2)c1=O [Palbociclib] (partner 0.5 µM)
How it was run: as §1

[4] = compound: CCN(CCO)CCCC(C)Nc1ccnc2cc(Cl)ccc12 [Hydroxychloroquine] + COc1cccc2cc(-c3nc([C@H]4CC[C@H](C(=O)O)CC4)n4ncnc(N)c34)[nH]c12 [OSI-027] (partner 0.5 µM)
How it was run: as §1

Row | Cell Line | relative viability ([1]; first compound 0.5 µM) | relative viability ([1]; first compound 1.581 µM) | relative viability ([1]; first compound 5 µM) | relative viability ([1]; first compound 15.81 µM) | relative viability ([1]; first compound 50 µM) | relative viability ([2]; first compound 0.5 µM) | relative viability ([2]; first compound 1.581 µM) | relative viability ([2]; first compound 5 µM) | relative viability ([2]; first compound 15.81 µM) | relative viability ([2]; first compound 50 µM) | relative viability ([3]; first compound 0.5 µM) | relative viability ([3]; first compound 1.581 µM) | relative viability ([3]; first compound 5 µM) | relative viability ([3]; first compound 15.81 µM) | relative viability ([3]; first compound 50 µM) | relative viability ([4]; first compound 0.5 µM) | relative viability ([4]; first compound 1.581 µM) | relative viability ([4]; first compound 5 µM) | relative viability ([4]; first compound 15.81 µM) | relative viability ([4]; first compound 50 µM)
1 | NCI-H1793 | 0.349 | 0.308 | 0.415 | 0.307 | 0.364 | 0.357 | 0.197 | 0.16 | 0.15 | 0.194 | 0.331 | 0.311 | 0.372 | 0.325 | 0.312 | 0.334 | 0.226 | 0.226 | 0.234 | 0.262
2 | NCI-H1395 | 0.605 | 0.836 | 0.627 | 0.564 | 0.569 | 0.655 | 0.785 | 0.722 | 0.886 | 0.483 | 0.652 | 0.556 | 0.626 | 0.608 | 0.563 | 0.67 | 0.566 | 0.639 | 0.638 | 0.549
3 | HCC-827 | 1.01 | 0.899 | 0.755 | 0.98 | 1.06 | 0.781 | 0.629 | 0.686 | 0.522 | 0.85 | 0.413 | 0.456 | 0.467 | 0.466 | 0.521 | 0.802 | 0.572 | 0.821 | 1.03 | 0.763
4 | ChaGo-K-1 | 0.873 | 0.506 | 0.383 | 0.662 | 0.64 | 0.615 | 0.626 | 0.55 | 0.594 | 0.643 | 0.967 | 0.942 | 0.912 | 0.975 | 0.989 | 0.688 | 0.675 | 0.498 | 0.53 | 0.609

Reference: the supplement of paper PMC10307832
